Results published in US7645736B2, “Integrin inhibitors for the treatment of eye diseases” (Merck Patent GmbH, priority 2004, dated 2010).

Tested on: bFGF-stimulated corneal angiogenesis
Experiment: rabbit corneal micropocket model, single intravitreal injection
Format: in vivo
Details: single (day 0) intravitreal, 100 μL, drug = 2 mg/eye; for inhibition [%] of neovascularisation area: vs saline control
Experimental: (1996). In this model angiogenesis is stimulated by implantation of Hydron pellets containing an angiogenesis stimulating cytokine like, for example, fibroblast growth factor (FGF) or vascular endothelial growth factor (VEGF) into the cornea. After implantation the active compound to be tested is administered by paralimbal intravitreal injection. Effect on neovascularisation is measured after predetermined time intervals by visual examination using a microscope, photographing and computer-assisted quantification of photographs.
The effect of intravitreal application of an αvβ3 and/or αvβ5 inhibitor was examined in rabbit corneal micropocket model as described by Shaffer R. W. (see above). As an example for an αvβ3 and/or αvβ5 inhibitor 2-(2,2-dimethylpropyloxycarboxamido)-3{3,4-dihydro-2-[N-(2-imidazoly)-carbamoylethyl]-2H-1,4-benzoxazin-3-on-6-yl}propionic acid was used in the experiment. For induction of angiogenesis Hydron pellets containing basic fibroblast growth factor (bFGF) were used. Preparation of bFGF containing implants was performed by casting Hydron [poly(hydroxyethyl)methacrylate] in specially prepared Teflon pegs that have a 2.5 mm core drilled into their surfaces. Approximately 12 μl of casting material was placed into each peg and polymerized overnight in a sterile hood, then sterilized by ultraviolet irradiation.
The experiment consisted of 10 animals; in each eye of the animals one individual pellet was implanted into a surgically created “pocket” in the mid stroma of the rabbit cornea. The surgical procedure was done under sterile technique using a Moeller-Wedel Microflex operating microscope (Haag-Streit Company, Germany) equipped with a beamsplitter and camera for photographically recording individual comeas. A 69 Beaver blade was used to create a 3 mm by 5 mm “pocket” to a depth of half the comeal thickness. The stroma was dissected peripherally using an spatula and the pellet implanted with its peripheral margin 2 mm from limbus. […] For comparison the same procedure was performed in the other 5 animals using saline only. Following implantation the eyes Were photographed and the area of neovascularisation measured after predetermined intervals.

Q: With CC(C)(C)COC(=O)NC(Cc1ccc2c(c1)NC(=O)C(CCC(=O)Nc1ncc[nH]1)O2)C(=O)O (centres unmarked) [Drug, 2-(2,2-dimethylpropyloxycarboxamido)-3-{3,4-dihydro-2-[N-(2-imidazolyl)-carbamoylethyl]-2H-1,4-benzoxazin-3-on-6-yl}propionic acid] as the molecule, how does the “mean area [mm^2] of neovascularisation” value (5 days post implantation) read?
A: Its value is 1.71 mm^2.

Q: And the “inhibition [%] of neovascularisation area” value (shortened to “inhibition [%]”) (5 days post implantation)?
A: Its value is 56.3%.

Q: What about the “mean area [mm^2] of neovascularisation” value (7 days post implantation) of the same molecule?
A: The value was 4.65 mm^2.

Q: And the “inhibition [%]” value (7 days post implantation)?
A: The value was 13.4%.

Q: And the “mean area [mm^2] of neovascularisation” value (10 days post implantation)?
A: Its value is 5.10 mm^2.

Q: What about the “inhibition [%]” value (10 days post implantation) of the same molecule?
A: Its value is 45.8%.

Q: And the “mean area [mm^2] of neovascularisation” value (14 days post implantation)?
A: Its value is 9.94 mm^2.

Q: What about the “inhibition [%]” value (14 days post implantation) of the same molecule?
A: Its value is 40.0%.
